“And” between values parts separate entries of the source, which are not always exact repeats. Equal entries are not always repeated.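 Briefly, cells in 96-well plates were exposed to five compound concentrations for 48 h, and endpoints were estimated by linear interpolation. GI50 is the concentration that inhibits growth by half. TGI is the concentration that stops growth completely.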
Each molecule was assayed on PC-3 prostate (assay: NCI anticancer screen, dose series, 48 h).

Row | Structure (SMILES) | TGI [µM]
1 | CC(C)c1c(P(=O)(c2ccccc2)c2ccccc2)n(C)c2ccccc12 | > 100
2 | CCN(CCCN(CC)C(=O)N[C@@H](Cc1ccccc1)C(=O)NC)C(=O)N[C@@H](Cc1ccccc1)C(=O)NC | > 100
3 | CCOP(=O)(OCC)/C(F)=C/c1ccccc1 | > 100
4 | CC(C)/C(Cl)=N\OC(=O)NNc1ccccc1 | > 100
5 | O=C(/C=C/c1cccs1)c1ccc(Cl)cc1 | > 100
6 | O=C(O)c1ccc(NS(=O)(=O)Cc2ccccc2)cc1 | > 100
7 | O=C1/C(=C/c2ccc(F)cc2)CNC/C1=C\c1ccc(F)cc1 | 4.41
8 | O=C1OC[C@@H]2Cc3c([nH]c4ccccc34)[C@@H](c3ccc(O)cc3)N12 | > 100
9 | CCN(CC)CCCn1c(=O)c2cccnc2n2c3c(=O)n(C)c(=O)n(C)c3nc12 | > 100
10 | CN(C)c1ccc(/C(Br)=C2\OC(=O)c3ccccc32)cc1 | > 100
11 | CC1=C2c3ccccc3N(C(=O)/C=C/C(=O)O)[C@H]2[C@H]2C(=O)OC(=O)[C@H]2C1 | > 10
12 | CC1=CC(=O)N(n2c(C)n[nH]c2=O)C1=O | > 100
13 | COc1ccc2c(c1)C(=O)c1ccccc1C2 | > 100
14 | CCOC(=O)C1CC(O)C(=O)N1C (stereo unspecified) | > 100
15 | CC(=O)CC(=O)c1cc2c(=O)oc(C)cc2oc1=O | > 37.5
16 | CCn1c(=O)c2c3cc(O)ccc3oc2c2ccc(O)cc21 | > 100
17 | N#Cc1c2c(c(Nc3ccc(F)cc3)n3c1nc1ccccc13)CCC2 | 19
18 | COc1cccc(C2c3cc4c(cc3OC(N3CCCC3)C2C)OCO4)c1OC (stereo unspecified) | 27.3
19 | COc1cc2c(cc1OC)C(=O)/C(=C/c1cc(C)c(O)c(C)c1)C2 | > 100
20 | COc1cccc(-c2nc(-c3cnccn3)n(Cc3ccccc3)n2)c1 | > 100
21 | C[C@]12CC/C(=N\O)C=C1CC[C@@H]1[C@@H]2CC[C@]2(C)C(=N/O)/C(=C/c3cccnc3)C[C@@H]12 | > 100
22 | CC(C)(CO)N1C(=O)c2ccccc2C1(O)c1ccc(Cl)cc1 (stereo unspecified) | > 100
23 | O=c1nc2c(c(-c3cccc(Cl)c3)[nH]1)COC/C2=C\c1cccc(Cl)c1 | > 100
24 | CCOc1ccc(N=C/C=C(\Cl)c2ccc3ccccc3c2)cc1 | 36
25 | N#Cc1c(OCCF)c2ccccc2n2c1nc1ccccc12 | > 100
26 | Cc1cccc(N(CCC#N)S(=O)(=O)c2ccccc2)c1 | > 100

What follows are molecules tested on SK-MEL-5 melanoma (assay: NCI anticancer screen, dose series, 48 h).

Row | Structure (SMILES) | TGI [µM] | GI50 [µM]
27 | COc1ccc(NC2Oc3cc4c(cc3C(c3cc(OC)c(OC)c(OC)c3)C2C)OCO4)cc1 (stereo unspecified) | 4.09 | 
28 | Cc1ccc(C2=Nc3c(c(C)nn3-c3ccccc3)N=C(C(=O)O)C2)cc1 | > 10 | 
29 | CC1CC(C#N)=C2NCCCCN2C1=O (stereo unspecified) | > 100 | 
30 | O=C(OCc1ccccc1)OOC(=O)OCc1ccccc1 | > 100 | 
31 | Cc1ccc(C(=O)Nc2ccc(CP(=O)(O)O)cc2)cc1NC(=O)c1cccc(NC(=O)Nc2cccc(C(=O)Nc3cc(C(=O)Nc4ccc(CP(=O)(O)O)cc4)ccc3C)c2)c1 | > 100 | 
32 | CN(O)C(=O)Cc1ccc(OCc2cccc(Cl)c2)cc1 | > 100 | 
33 | OCc1ccccc1C1CSCSC1 | > 100 | 
34 | CCN(CCCN(CC)C(=O)N[C@@H](Cc1ccccc1)C(=O)NC)C(=O)N[C@@H](Cc1ccccc1)C(=O)NC | > 100 | 
35 | CCOP(=O)(OCC)/C(F)=C/c1ccccc1 | > 100 | 
36 | c1ccc(N=c2snc(-c3ccccc3)s2)cc1 | > 100 | 
37 | CC(C)/C(Cl)=N\OC(=O)NNc1ccccc1 | > 54 | 
38 | O=C(/C=C/c1cccs1)c1ccc(Cl)cc1 | > 100 | 
39 | O=C(O)c1ccc(NS(=O)(=O)Cc2ccccc2)cc1 | > 100 | 
40 | O=C1/C(=C/c2ccc(F)cc2)CNC/C1=C\c1ccc(F)cc1 | 3.02 | 
41 | O=C1OC[C@@H]2Cc3c([nH]c4ccccc34)[C@@H](c3ccc(O)cc3)N12 | 33.2 | 
42 | Cc1oc2nc(N(C)C)n3nnnc3c2c1C | > 100 | 
43 | CCN(CC)CCCn1c(=O)c2cccnc2n2c3c(=O)n(C)c(=O)n(C)c3nc12 | > 100 | 
44 | CN(C)c1ccc(/C(Br)=C2\OC(=O)c3ccccc32)cc1 | > 100 | 
45 | CC1=C2c3ccccc3N(C(=O)/C=C/C(=O)O)[C@H]2[C@H]2C(=O)OC(=O)[C@H]2C1 | > 10 | 
46 | CC1=CC(=O)N(n2c(C)n[nH]c2=O)C1=O | > 100 | 
47 | CN1CCN(C(=S)N(C)C(=O)c2ccc(Cl)cc2)CC1 | > 100 | 

Row | Structure (SMILES) | TGI [µM] | GI50 [µM]
48 | COc1ccc2c(c1)C(=O)c1ccccc1C2 | > 100 | 
49 | CCOC(=O)C1CC(O)C(=O)N1C (stereo unspecified) | > 100 | 
50 | Cc1cc2cccc(Cl)c2nc1C(=O)c1ccccc1 | > 100 | 
51 | CC(=O)CC(=O)c1cc2c(=O)oc(C)cc2oc1=O | > 37.5 | 
52 | CCn1c(=O)c2c3cc(O)ccc3oc2c2ccc(O)cc21 | > 100 | 
53 | N#Cc1c2c(c(Nc3ccc(F)cc3)n3c1nc1ccccc13)CCC2 | 8.52 | 
54 | CCOC(=O)c1c(N)n(-c2ccccc2)c(=S)n(-c2ccccc2)c1=O | > 100 | 
55 | COc1cccc(C2c3cc4c(cc3OC(N3CCCC3)C2C)OCO4)c1OC (stereo unspecified) | 12.5 | 
56 | COc1cc2c(cc1OC)C(=O)/C(=C/c1cc(C)c(O)c(C)c1)C2 | > 100 | 
57 | CC(C)=CC1C(C(=O)O)C1(C)C (stereo unspecified) | > 750 | 
58 | COc1cccc(-c2nc(-c3cnccn3)n(Cc3ccccc3)n2)c1 | > 100 | 
59 | COc1cc([C@@H]2c3cc4c(cc3C[C@H]3COC(=O)[C@@H]32)OCO4)cc(OC)c1OC | > 7.93 | 0.00397
60 | C[C@@H]1C[C@H](O)[C@]2(O)O[C@@H]3C[C@@]4(C=O)[C@@H](CC=C5[C@@H]4CC[C@]4(C)[C@@H](C6=CC(=O)OC6)CC[C@]54O)C[C@H]3O[C@@H]2O1 | 0.133 | 
61 | CC(C)(CO)N1C(=O)c2ccccc2C1(O)c1ccc(Cl)cc1 (stereo unspecified) | > 100 | 
62 | C=CCCCC12CCCc3cccc(c31)NC2=O (stereo unspecified) | 34.2 | 
63 | O=c1nc2c(c(-c3cccc(Cl)c3)[nH]1)COC/C2=C\c1cccc(Cl)c1 | > 100 | 
64 | CCOc1ccc(N=C/C=C(\Cl)c2ccc3ccccc3c2)cc1 | 31 | 
65 | COC1C=CC23c4cc5c(cc4C(O)OC2CN(C)C3C1)OCO5 (stereo unspecified) | 1.65 | 
66 | N#Cc1c(OCCF)c2ccccc2n2c1nc1ccccc12 | > 100 | 
67 | Cc1cccc(N(CCC#N)S(=O)(=O)c2ccccc2)c1 | > 100 | 

These molecules were tested on LOX IMVI melanoma (assay: NCI anticancer screen, dose series, 48 h).

Row | Structure (SMILES) | TGI [µM] | GI50
68 | COc1ccc(NC2Oc3cc4c(cc3C(c3cc(OC)c(OC)c(OC)c3)C2C)OCO4)cc1 (stereo unspecified) | > 100 | 
69 | Cc1ccc(C2=Nc3c(c(C)nn3-c3ccccc3)N=C(C(=O)O)C2)cc1 | > 10 | 
70 | CC1CC(C#N)=C2NCCCCN2C1=O (stereo unspecified) | > 100 | 
71 | Cc1ccc(C(=O)Nc2ccc(CP(=O)(O)O)cc2)cc1NC(=O)c1cccc(NC(=O)Nc2cccc(C(=O)Nc3cc(C(=O)Nc4ccc(CP(=O)(O)O)cc4)ccc3C)c2)c1 | > 100 | 
72 | CN(O)C(=O)Cc1ccc(OCc2cccc(Cl)c2)cc1 | > 100 | 
73 | OCc1ccccc1C1CSCSC1 | > 100 | 
74 | CC(C)c1c(P(=O)(c2ccccc2)c2ccccc2)n(C)c2ccccc12 | > 100 | 
75 | CCN(CCCN(CC)C(=O)N[C@@H](Cc1ccccc1)C(=O)NC)C(=O)N[C@@H](Cc1ccccc1)C(=O)NC | > 100 | 
76 | CCOP(=O)(OCC)/C(F)=C/c1ccccc1 | > 100 | 
77 | CC(C)/C(Cl)=N\OC(=O)NNc1ccccc1 | 36.9 | 
78 | O=C(O)c1ccc(NS(=O)(=O)Cc2ccccc2)cc1 | > 100 | 
79 | O=C1/C(=C/c2ccc(F)cc2)CNC/C1=C\c1ccc(F)cc1 | 2.33 | 
80 | O=C1OC[C@@H]2Cc3c([nH]c4ccccc34)[C@@H](c3ccc(O)cc3)N12 | 46.3 | 
81 | Cc1oc2nc(N(C)C)n3nnnc3c2c1C | > 100 | 
82 | CCN(CC)CCCn1c(=O)c2cccnc2n2c3c(=O)n(C)c(=O)n(C)c3nc12 | > 100 | 
83 | CN(C)c1ccc(/C(Br)=C2\OC(=O)c3ccccc32)cc1 | > 100 | 
84 | CC1=CC(=O)N(n2c(C)n[nH]c2=O)C1=O | > 100 | 
85 | CN1CCN(C(=S)N(C)C(=O)c2ccc(Cl)cc2)CC1 | > 100 | 
86 | CC(=O)Nc1ccc(Cl)c(Cl)c1 | > 100 | 

Row | Structure (SMILES) | TGI [µM] | GI50
87 | COc1ccc2c(c1)C(=O)c1ccccc1C2 | > 100 | 
88 | CCOC(=O)C1CC(O)C(=O)N1C (stereo unspecified) | > 100 | 
89 | Cc1cc2cccc(Cl)c2nc1C(=O)c1ccccc1 | > 100 | 
90 | COc1ccc(CNc2nc3ccc(C(F)(F)F)cc3nc2-c2ccccc2)cc1OC | > 100 | 
91 | N#Cc1c2c(c(Nc3ccc(F)cc3)n3c1nc1ccccc13)CCC2 | 5.37 | 
92 | CCOC(=O)c1c(N)n(-c2ccccc2)c(=S)n(-c2ccccc2)c1=O | > 100 | 
93 | COc1cccc(C2c3cc4c(cc3OC(N3CCCC3)C2C)OCO4)c1OC (stereo unspecified) | 4.07 | 
94 | COc1cc2c(cc1OC)C(=O)/C(=C/c1cc(C)c(O)c(C)c1)C2 | > 47.3 | 
95 | CC(C)=CC1C(C(=O)O)C1(C)C (stereo unspecified) | > 750 | 
96 | COc1cccc(-c2nc(-c3cnccn3)n(Cc3ccccc3)n2)c1 | > 100 | 
97 | COc1cc([C@@H]2c3cc4c(cc3C[C@H]3COC(=O)[C@@H]32)OCO4)cc(OC)c1OC | > 50 | 0.00281 µM and 0.005 µM
98 | C[C@]12CC/C(=N\O)C=C1CC[C@@H]1[C@@H]2CC[C@]2(C)C(=N/O)/C(=C/c3cccnc3)C[C@@H]12 | 9.74 | 
99 | C=CCCCC12CCCc3cccc(c31)NC2=O (stereo unspecified) | 62.3 | 
100 | O=c1nc2c(c(-c3cccc(Cl)c3)[nH]1)COC/C2=C\c1cccc(Cl)c1 | > 100 | 
101 | CCOc1ccc(N=C/C=C(\Cl)c2ccc3ccccc3c2)cc1 | 15.3 | 
102 | COC1C=CC23c4cc5c(cc4C(O)OC2CN(C)C3C1)OCO5 (stereo unspecified) | 6.85 | 
103 | N#Cc1c(OCCF)c2ccccc2n2c1nc1ccccc12 | > 100 | 
104 | Cc1cccc(N(CCC#N)S(=O)(=O)c2ccccc2)c1 | > 100 | 
